# Measured values taken from PMC8460535, “Novel serotonin 5-HT2A receptor antagonists derived from 4-phenylcyclohexane-5-spiro-and 5-methyl-5-phenyl-hydantoin, for use as potential antiplatelet agents” (Pharmacological Reports, 2021).
# Several values for one entry are separate records, joined by “and”; a condition that tells them apart may be missing. Identical values can stand only once. Like-named read-outs stand apart in the source and are kept apart here.
# Experiments:
# [1] = biological target: T1, 5-HT2A receptors in rat aorta (Rattus norvegicus, UniProt P14842); experiment: Functional bioassay at 5-HT2A receptors in isolated rat aorta (5-HT-induced contraction); type: cell-based; conditions: single antagonist concentration, 30 min incubation, read-out: pKB ± SEM a (converted)
# T1 construct: Isolated rat aorta was used to determine the antagonistic activity of studied compounds for 5HT2A-receptors; from tissue; host or cells: aortic rings of male Wistar rats, denuded of the endothelium
# T1 sequence (P14842 whole entry): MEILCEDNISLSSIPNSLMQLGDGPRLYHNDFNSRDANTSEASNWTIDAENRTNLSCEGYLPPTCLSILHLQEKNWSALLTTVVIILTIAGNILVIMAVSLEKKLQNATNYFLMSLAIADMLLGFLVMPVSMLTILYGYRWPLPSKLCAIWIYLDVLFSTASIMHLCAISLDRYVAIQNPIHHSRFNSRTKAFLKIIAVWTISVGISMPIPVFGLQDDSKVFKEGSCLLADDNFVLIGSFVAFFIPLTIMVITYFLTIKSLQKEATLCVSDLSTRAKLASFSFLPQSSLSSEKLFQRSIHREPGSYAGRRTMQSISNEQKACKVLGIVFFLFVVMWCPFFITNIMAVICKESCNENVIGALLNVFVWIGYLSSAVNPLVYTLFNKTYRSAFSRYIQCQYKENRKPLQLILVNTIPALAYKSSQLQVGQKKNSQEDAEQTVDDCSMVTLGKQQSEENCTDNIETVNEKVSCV
# Experimental: Isolated rat aorta was used to determine the antagonistic activity of studied compounds for 5HT2A-receptors. The male Wistar rats weighting 200–350 g were anesthetized with thiopental sodium (75 mg/kg i.p.) and the aorta was dissected and placed in a Krebs–Henseleit solution (NaCl 118 mM, KCl 4.7 mM, CaCl2 2.25 mM, MgSO4 1.64 mM, KH2PO4 1.18 mM, NaHCO3 24.88 mM, glucose 10 mM, C3H3O3Na 2.2 mM, EDTA 0.05 mM), denuded of the endothelium, cleaned of surrounding fat tissues and cut into 4-mm-long rings. The aortic rings were incubated in 30 ml chambers filled with a Krebs–Henseleit solution at 37 °C and pH 7.4 with constant oxygenation (O2/CO2, 19:1). Two stainless steel stirrups were inserted through the lumen of each aortic segment: one stirrup was attached to the bottom of the chamber and the other to an isometric FDT10-A force–displacement transducer (BIOPAC Systems, Inc., COMMAT Ltd., Turkey). The aortic rings were stretched and maintained at optimal tension of 2 g and allowed to equilibrate for 2 h.
# After the equilibration period, the aortic rings were contracted to maximal tension with KCl (60 mM). The depolarizing solution KCl (60 mM) was obtained by equimolar substitution of […]. Then the cumulative concentration–response curves to 5-HT were determined in the absence and presence of antagonist. Tissues were incubated with antagonists for 30 min.
# Concentration–response curves were analyzed using GraphPad Prism 6.0 software (GraphPad Software Inc., San Diego, CA, USA). […] Data are the mean ± SEM of three separate experiments. The affinity was estimated with the equation pKB = log(concentration ratio–1)-log(molar antagonist concentration), where the concentration ratio is the ratio of equi-effective agonist concentrations in the absence and in the presence of the antagonist.
# [2] = biological target: T2, human 5-HT2A receptor (Homo sapiens, UniProt P28223); experiment: Aequorin luminescence-based intracellular calcium assay in CHO cells expressing human 5-HT2A; type: cell-based; conditions: cells expressing human 5-HT2A receptors, antagonist mode vs α-methylserotonin 30 nM; read-out: pKB ± SEM b (converted)
# T2 construct: purchased PerkinElmer; host or cells: CHO-K1 cells, stably transfected
# T2 sequence (P28223 whole entry): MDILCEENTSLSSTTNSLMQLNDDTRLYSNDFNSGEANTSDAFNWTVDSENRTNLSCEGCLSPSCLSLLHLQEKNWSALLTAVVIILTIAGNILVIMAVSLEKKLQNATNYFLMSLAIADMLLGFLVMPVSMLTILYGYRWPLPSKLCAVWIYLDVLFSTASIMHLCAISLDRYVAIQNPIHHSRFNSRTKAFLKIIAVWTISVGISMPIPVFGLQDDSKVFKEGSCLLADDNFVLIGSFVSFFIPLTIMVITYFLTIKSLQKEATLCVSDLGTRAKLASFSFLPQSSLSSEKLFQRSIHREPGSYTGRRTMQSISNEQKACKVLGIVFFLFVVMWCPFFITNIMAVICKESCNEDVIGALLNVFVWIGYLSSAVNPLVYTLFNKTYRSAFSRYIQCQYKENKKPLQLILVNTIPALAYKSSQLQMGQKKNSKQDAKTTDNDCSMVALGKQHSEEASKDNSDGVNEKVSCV
# Experimental: Tested and reference compounds were dissolved in DMSO at a concentration of 10^–2 M. Serial dilutions were prepared in 96-well microplate in assay buffer and eight to ten concentrations were tested.
# A cellular aequorin-based functional assay was performed with recombinant Chinese hamster ovary cells expressing mitochondrially targeted aequorin, human G-protein-coupled receptors, and the promiscuous G protein α16 for 5-HT2A. The full description of this assay is in Supplementary materials.
# A cellular aequorin-based functional assay was performed with recombinant Chinese hamster ovary cells expressing mitochondrially targeted aequorin, human G-protein-coupled receptors and the promiscuous G protein α16 for 5-HT2A. After thawing, cells were transferred to assay buffer (Dulbecco's Modified Eagle Medium/HAM’s F12 with 0.1% protease free bovine serum albumin) and centrifuged. The cell pellet was resuspended in assay buffer and coelenterazine h was added at final concentrations of 5 μM. The cells suspension was incubated at 16°C, protected from light with constant agitation for 16 h and then diluted with assay buffer to the concentration of 120,000 cells/ml. After 1 h of incubation, 50 μl of the cells suspension was dispensed using automatic injectors built into the radiometric and luminescence plate counter MicroBeta2 LumiJET (PerkinElmer, USA) into white opaque 96-well microplates preloaded with test compounds. Immediate light emission generated following calcium mobilization was recorded for 30 s. In antagonist mode, after 30 min of incubation the reference agonist was added to the above assay mix and light emission was recorded again. Final concentration of the reference agonist was equal to EC80 of α-methylserotonin (30 nM).
# [3] = tested on: whole rat blood aggregation induced by 5-HT and ADP; experiment: In vitro whole rat blood aggregation induced by 5-HT and sub-threshold ADP; type: cell-based; conditions: for IC50: 5-HT 6 μM and ADP 1.6 μM, na = not active, read-out: c (5-HT + ADP) IC50
# Experimental: (§1) In vitro aggregation assays were performed using freshly drawn whole rat blood with a Multiplate platelet function analyzer (Roche Diagnostic), the five-channel aggregometer based on measurements of electric impedance. Blood was collected from carotid arteries with a hirudin blood tube (Roche Diagnostic). 300 μl of hirudin anticoagulated blood was mixed with 300 μl prewarmed isotonic saline solution containing studied compound or vehicle (deionized water or DMSO 0.1%) and preincubated for 3 min at 37 °C with continuous stirring. Aggregation was induced by adding collagen (Hyphen-Biomed, France) (final concentration 1.6 µg/ml), 5-HT (30 µM) and sub-threshold concentration of collagen (0.8 µg/ml), 5-HT (6 µM) and sub-threshold concentration of ADP (ADP test, Roche Diagnostic), (1.6 µM). The aggregation process was recorded for 6 min. Ketanserin (ketanserin ( +) tartrate salt, Sigma-Aldrich, Germany), sarpogrelate (sarpogrelate hydrochloride, Sigma-Aldrich, Germany), and aspirin (Tocris, UK) were used as reference compounds. The Multiplate software analyzed the area under the curve (AUC) of the clotting process of each measurement and calculated the mean values. Each concentration of studied compounds was tested at least three times. The exact sample size (n value) is presented on Figs. 2–4. Concentration-inhibition curves were constructed and analyzed by non-linear curve fitting using GraphPad Prism 6.0 (GraphPad Software Inc., San Diego, CA, USA).
# [4] = tested on: whole rat blood aggregation induced by 5-HT and collagen; experiment: In vitro whole rat blood aggregation induced by 5-HT and sub-threshold collagen; type: cell-based; conditions: 5-HT 30 μM and collagen 0.8 μg/ml, read-out: b (5-HT + collagen) IC50
# Experimental: as §1
# [5] = biological target: T2, human 5-HT2A receptor; experiment: 5-HT2A receptor radioligand binding assay ([3H]-ketanserin, CHO-K1 membranes); conditions: read-out: Ki [nM] ± SEM
# Experimental: Stock solutions of tested compounds (10 mM) were prepared in DMSO. […] Each compound was tested in eight concentrations from 10^–5 to 10^–12 M (final concentration).
# Radioligand binding was performed using membranes from CHO-K1 cells stably transfected with the human 5-HT2A receptor (PerkinElmer). All assays were carried out in duplicates. Data were fitted to a one-site curve-fitting equation with Prism 6 (GraphPad Software) and Ki values were estimated from the Cheng − Prusoff equation. The full description of this assay is in Supplementary material.
# Mianserin (10 μM) was used to define nonspecific binding. […] The reaction was terminated by rapid filtration through GF/B filter mate presoaked with 0.5% polyethyleneimine for 30 minutes. Ten rapid washes with 200 µl 50 mM Tris buffer (4°C, pH 7.4) were performed using automated harvester system Harvester-96 MACH III FM (Tomtec). […] Radioactivity was counted in MicroBeta2 scintillation counter (PerkinElmer).
# [6] = biological target: 5-HT2A receptor; conditions: cited from earlier work
Structure (SMILES),melting point [°C],Kb [1] [nM],Kb [2],IC50 [4] [nM],Ki [5] [nM],IC50 [3] [nM],also measured
"CC1(c2ccccc2)NC(=O)N(CCN2CCN(C(c3ccccc3)c3ccccc3)CC2)C1=O (stereo not drawn) [Compound 2, 3-(2-(4-Benzhydrylpiperazin-1-yl)ethyl)-5-methyl-5-phenylimidazolidine-2,4-dione]",,690,1970 nM,140000 ± 18900,450 ± 43.9,,inhibitory effect on ADP- and 5-HT-induced blood aggregation ([3]; at a concentration of 200 μM): did not exhibit any significant inhibitory effect
"O=C1NC2(CCC(c3ccccc3)CC2)C(=O)N1CCN1CCN(C(c2ccccc2)c2ccccc2)CC1 (stereo not drawn) [Compound 8, 3-(2-(4-Benzhydrylpiperazin-1-yl)ethyl)-8-phenyl-1,3-diazaspiro[4.5]decane-2,4-dione]",243 to 245,,,,,,
"O=C1NC2(CCC(c3ccccc3)CC2)C(=O)N1CCCN1CCN(c2ccccc2F)CC1 (stereo not drawn) [Compound 9, 3-(3-(4-(2-Fluorophenyl)piperazin-1-yl)propyl)-8-phenyl-1,3-diazaspiro[4.5]decane-2,4-dione]",,95.9,1990 nM,139000 ± 16100,220 ± 19.6,,
"O=C1NC2(CCC(c3ccccc3)CC2)C(=O)N1CCCN1CCN(c2cccc(F)c2)CC1 (stereo not drawn) [Compound 10, 3-(3-(4-(3-Fluorophenyl)piperazin-1-yl)propyl)-8-phenyl-1,3-diazaspiro[4.5]decane-2,4-dione]",,501,,94300 ± 53500,297 ± 19.9,119000 ± 32100,
"O=C1NC2(CCC(c3ccccc3)CC2)C(=O)N1CCCN1CCN(c2ccc(F)cc2)CC1 (stereo not drawn) [Compound 11, 3-(3-(4-(4-Fluorophenyl)piperazin-1-yl)propyl)-8-phenyl-1,3-diazaspiro[4.5]decane-2,4-dione]",,37.2,175 nM,91300 ± 7100,21 ± 1.7,140000 ± 44600,
CC1(c2ccccc2)NC(=O)N(CCCN2CCN(c3ccccc3)CC2)C1=O (stereo not drawn) [compound B],,,,,,,"Ki ([6]; 5-HT2A receptors, previous studies, read-out: Ki (5-HT2A) of earlier hydantoin leads): 69 nM"
"O=S1(=O)c2cccc3cccc(c23)N1CCCN1CCN(c2ccc(F)cc2)CC1 [fananserin, reference compound]",,,,,,,"Ki ([6]; literature values, no reference given, read-out: 5-HT2A: Ki of conventional antagonists): 0.37 nM"

# Now from value to compound, other results behind:
melting point [°C],Kb [1] [nM],Kb [2],IC50 [4] [nM],Ki [5] [nM],IC50 [3] [nM],Structure (SMILES),also measured
117 to 119,,,,,,"CC1(c2ccccc2)NC(=O)N(CCN2CCN(C(=O)c3ccc(F)cc3)CC2)C1=O (stereo not drawn) [Compound 1, 3-(2-(4-(4-Fluorobenzoyl)piperazin-1-yl)ethyl)-5-methyl-5-phenylimidazolidine-2,4-dione]",
,216,~175 nM and 175 nM,17400 ± 10900,516 ± 52,37900 ± 6500,"CC1(c2ccccc2)NC(=O)N(CCCN2CCN(c3ccccc3F)CC2)C1=O (stereo not drawn) [Compound 3, 3-(3-(4-(2-Fluorophenyl)piperazin-1-yl)propyl)-5-methyl-5-phenylimidazolidine-2,4-dione]",
,440,9230 nM,153000 ± 26400,340 ± 57,83100 ± 8100,"CC1(c2ccccc2)NC(=O)N(CCCN2CCN(c3cccc(F)c3)CC2)C1=O (stereo not drawn) [Compound 4, 3-(3-(4-(3-Fluorophenyl)piperazin-1-yl)propyl)-5-methyl-5-phenylimidazolidine-2,4-dione]",
,110,9290 nM,127000 ± 32700,48 ± 4.9,124000 ± 36200,"CC1(c2ccccc2)NC(=O)N(CCCN2CCN(c3ccc(F)cc3)CC2)C1=O (stereo not drawn) [Compound 5, 3-(3-(4-(4-Fluorophenyl)piperazin-1-yl)propyl)-5-methyl-5-phenylimidazolidine-2,4-dione]",
72 to 74,,,,,,"CC1(c2ccccc2)NC(=O)N(CCCN2CCN(C(=O)c3ccc(F)cc3)CC2)C1=O (stereo not drawn) [Compound 6, 3-(3-(4-(4-Fluorobenzoyl)piperazin-1-yl)propyl)-5-methyl-5-phenylimidazolidine-2,4-dione]",
224 to 226,,,,,,"O=C(c1ccc(F)cc1)N1CCN(CCN2C(=O)NC3(CCC(c4ccccc4)CC3)C2=O)CC1 (stereo not drawn) [Compound 7, 3-(2-(4-(4-Fluorobenzoyl)piperazin-1-yl)ethyl)-8-phenyl-1,3-diazaspiro[4.5]decane-2,4-dione]",
